Patent US4250255A, “Assay method for isoenzyme activity” (Eastman Kodak Company, priority 1977, dated 1981)
Read-outs that look alike come from different tables or passages of the source.

Legend:
[1] = system: isoenzymes of creatinine phosphokinase (CPK); experiment: Conventional coupled CPK assay (hexokinase, glucose-6-phosphate dehydrogenase); type: biochemical; conditions: conventional assay with coupled reactions, hexokinase and glucose-6-phosphate dehydrogenase
From the text: Of course, the particular amphiphile used and the concentration at which it is used will depend upon the particular isoenzyme being assayed. Not every amphiphile will have a discriminatory effect on the activity of isoenzymes in each isoenzyme system.

LD1 [2] = molecular target: T1, LD1 (Sus scrofa, UniProt P00336); experiment: LDH isoenzyme assay using a multilayer element; type: biochemical, porcine; design: purified porcine LDH isoenzymes; conditions: web with DSS 0.54 g/m^2 in the spreading-reagent layer; control web 11
Experimental: (§1) Analytical elements containing all of the reagents necessary to quantitate specific isoenzymes were prepared according to the following format:
(§2) A polycarbonate-subbed Lexan® support was coated with a reagent layer comprising agarose (2.7 g/m^2) and NADH (0.12 g/m^2) in 0.1 M Tris buffer at pH 7.4, and a spreading-reagent layer comprising Avicel® (43 g/m^2), sodium pyruvate (0.5 g/m^2), polyvinyl pyrrolidone (PVP) (2.15 g/m^2) in isopropyl alcohol, and sodium decylsulfate (DSS) (0.54 g/m^2).
(§3) Control webs were coated as above except no sodium decylsulfate was added to the spreading-reagent layer.
(§4) Two aqueous solutions of purified porcine LDH isoenzymes, one containing LD1 and the other LD5, were prepared in 0.01 M Tris buffer, pH 7.4, at approximately 90 mU/ml. Sample aliquots (10 μl) of each solution and a buffer control (0.01 M Tris) were spotted onto the webs which were then monitored in a POS unit for decreasing fluorescence of the NADH with respect to time at 340 nm.

LD5 [3] = molecular target: T2, LD5 (Sus scrofa, UniProt P00339); experiment: LDH isoenzyme assay using a multilayer element; type: biochemical, porcine; design: purified porcine LDH isoenzymes; conditions: web with DSS 0.54 g/m^2 in the spreading-reagent layer; control web 13
Experimental: as §1, §2, §3, §4

LD5 [4] = molecular target: T2, LD5; experiment: LDH activity assay with amphiphile, LDH isoenzymes; type: biochemical, porcine; design: LD5 from two different species, i.e., rabbit muscle and hog muscle; from tissue; host or cells: hog muscle; conditions: 7 mM DSS; FIG. 8
Experimental: (§5) 3. Beef heart LDH (Sigma Chemical Co., Type III), rabbit muscle LDH (Sigma Chemical Co., Type V) and porcine LDH, LD1, LD2, LD3, LD4 and LD5 in the form of ammonium sulfate suspensions were used for these examples.
(§6) The assay for LDH activity in both the absence and presence of surfactant was conducted as follows. […] The resulting solution contains approximately 5 units/ml. […] To the equilibrated solution […]. of the enzyme solution was added, and the cuvette was rapidly shaken while covering the top of the cuvette with a small piece of Parafilm® and placed back into the spectrophotometer.
(§7) Amphiphile solutions were prepared by weighing out a given amount of amphiphile, e.g., 100 mg, and preparing a stock solution in 30 mM sodium phosphate buffer in 100 ml. volumetric flask. Solutions of lower amphiphile concentration were prepared by making the appropriate dilutions from the stock solution.

human LD4 = molecular target: T3, human LD4 (Homo sapiens, UniProt P00338+P07195); experiment: LDH assay with human enzyme-containing serum; type: biochemical; conditions: 0.1 M DSS; pH 7.8; 14% protein
T3 construct: A specific human LDH isoenzyme (obtained from liver homogenate or red blood cell); from tissue; host or cells: human liver homogenate or red blood cell
Experimental: as §6
(§8) Pooled human serum, kept frozen until ready for use, was raised to pH 11.5 until all LDH activity was destroyed. The pH was then adjusted to 7.4 and the serum was again assayed for LDH activity to ensure that no LDH had been reactivated. A specific human LDH isoenzyme (obtained from liver homogenate or red blood cell) was then added to the pool to give an enzyme concentration of ~100 U/l. The spiked serum samples were refrigerated between uses and respiked when necessary. Fresh serum was prepared weekly.
(§9) 8. The assay method used is the same as described above for Examples 1-12, except that the test samples consisted of 25-30 μl of serum instead of 100 μl of aqueous enzyme solution.

human LD3 = molecular target: T4, human LD3 (Homo sapiens, UniProt P00338+P07195); experiment: LDH assay with human enzyme-containing serum; type: biochemical; conditions: 0.1 M DSS; pH 7.8; 14% protein
T4 construct: A specific human LDH isoenzyme (obtained from liver homogenate or red blood cell); from tissue; host or cells: human liver homogenate or red blood cell
Experimental: as §6, §8, §9

human LD2 = molecular target: T5, human LD2 (Homo sapiens, UniProt P00338+P07195); experiment: LDH assay with human enzyme-containing serum; type: biochemical; conditions: 0.1 M DSS; pH 7.8; 14% protein
T5 construct: A specific human LDH isoenzyme (obtained from liver homogenate or red blood cell); from tissue; host or cells: human liver homogenate or red blood cell
Experimental: as §6, §8, §9

human LD5 = molecular target: T6, human LD5 (Homo sapiens, UniProt P00338); experiment: LDH assay with human enzyme-containing serum; type: biochemical; conditions: 0.1 M DSS; pH 7.8; 14% protein
T6 construct: A specific human LDH isoenzyme (obtained from liver homogenate or red blood cell); from tissue; host or cells: human liver homogenate or red blood cell
Experimental: as §6, §8, §9

human LD1 = molecular target: T7, human LD1 (Homo sapiens, UniProt P07195); experiment: LDH assay with human enzyme-containing serum; type: biochemical; conditions: 0.1 M DSS; pH 7.8; 14% protein
T7 construct: A specific human LDH isoenzyme (obtained from liver homogenate or red blood cell); from tissue; host or cells: human liver homogenate or red blood cell
Experimental: as §6, §8, §9

[5] = molecular target: T8, LDH isoenzymes (LD5 in the presence of LD1) (Oryctolagus cuniculus, UniProt P13491); experiment: Anionic amphiphiles tested for specific interaction with LDH isoenzymes (Table 2); type: biochemical
T8 construct: LD1 (LDHB tetramer) only as comparison
Experimental: as §6, §7
A number of anionic amphiphiles were investigated for specific inactivation of LD5 in the presence of LD1 and these compounds are listed in Table 2.

LD2 = molecular target: T9, LD2 (Sus scrofa, UniProt P00336+P00339); experiment: LDH activity assay with amphiphile, LDH isoenzymes; type: biochemical, porcine; conditions: pH 7.4, read-out: LD2 activity remaining relative to buffer
T9 construct: porcine LDH, LD1, LD2, LD3, LD4 and LD5 in the form of ammonium sulfate suspensions
Experimental: as §5, §6, §7

LD4 = molecular target: T10, LD4 (Sus scrofa, UniProt P00336+P00339); experiment: LDH activity assay with amphiphile, LDH isoenzymes; type: biochemical, porcine; conditions: 7 mM DSS; FIG. 8
T10 construct: porcine LDH, LD1, LD2, LD3, LD4 and LD5 in the form of ammonium sulfate suspensions
Experimental: as §5, §6, §7

LD3 = molecular target: T11, LD3 (Sus scrofa, UniProt P00336+P00339); experiment: LDH activity assay with amphiphile, LDH isoenzymes; type: biochemical, porcine; conditions: pH 7.4, read-out: LD3 activity remaining relative to buffer
T11 construct: porcine LDH, LD1, LD2, LD3, LD4 and LD5 in the form of ammonium sulfate suspensions
Experimental: as §5, §6, §7

LD1 (beef heart) = molecular target: T12, LD1 (beef heart) (Bos taurus, UniProt Q5E9B1); experiment: LDH activity assay (pyruvate + NADH, absorbance decrease at 340 nm); type: biochemical; conditions: DSS 8.65 mM; CP 1 mM; FIG. 1B
T12 construct: Beef heart LDH (Sigma Chemical Co., Type III); purchased Sigma Chemical Co. Type III; host or cells: beef heart
Experimental: as §6, §7
(§10) The LDH enzyme assay (pyruvate+NADH→) is measured by the decrease in NADH absorbance at 340 nm with respect to time.

LD5 (rabbit muscle) = molecular target: T13, LD5 (rabbit muscle) (Oryctolagus cuniculus, UniProt P13491); experiment: as above; type: biochemical
T13 construct: rabbit muscle LDH (Sigma Chemical Co., Type V); purchased Sigma Chemical Co. Type V; host or cells: rabbit muscle
Experimental: as §6, §7, §10

LD1 [6] = molecular target: T1, LD1; experiment: LDH activity assay with amphiphile, LDH isoenzymes; type: biochemical, porcine; design: porcine LDH, LD1, LD2, LD3, LD4 and LD5 in the form of ammonium sulfate suspensions
Experimental: as §5, §6, §7

CCCCCCCCCCOS(=O)(=O)[O-].[Na+] [DSS, sodium decylsulfate]
discriminatory effect on the activities of the isoenzymes of CPK [1]: do not appear to have any discriminatory effect | Isoenzyme Activity LD1 (LD1 [2]): 15 | Isoenzyme Activity LD5 (LD5 [3]): 0 | LD5 activity relative to buffer (LD5 [4]): all the LD5 and LD4 activity is destroyed | human LD4 activity (human LD4): completely deactivated | human LD3 activity (human LD3): completely deactivated | human LD2 activity (human LD2): completely deactivated | human LD5 activity (human LD5): completely deactivated | human LD1 activity (human LD1): fully active | Interaction (specific inactivation of LD5 in the presence of LD1) [5]: useful positive results | Interaction (specific inactivation of LD5 in the presence of LD1) ([5]; listed as sodium decylsulfate): specific | remaining activity at 7000 µM (LD2): ~60% | LD4 activity relative to buffer (LD4): all the LD5 and LD4 activity is destroyed | remaining activity at 7000 µM (LD3): ~30% | LD1 (beef heart) activity in the presence of amphiphile (LD1 (beef heart)): almost no loss in LD1 activity | LD5 (rabbit muscle) activity in the presence of amphiphile (LD5 (rabbit muscle); DSS 8.65 mM, CP 1 mM, FIG. 1A): rapidly inactivates | time to complete inactivation of LD5 (LD5 (rabbit muscle); anionic detergent (DSS), dead time of the instrument): ≤ 5 s | LD1 activity in amphiphile solution compared with buffer (LD1 [6]; 9 mM DSS in 30 mM phosphate buffer, pH 7.4, FIG. 10): less than control LD1 activity in buffer | isoenzyme activity beyond 9 mM amphiphile (LD1 [6]; DSS beyond 9 mM, FIG. 8): only LD1 continues to show activity | remaining activity at 7000 µM (LD1 [6]; pH 7.4, read-out: LD1 activity remaining relative to buffer): ~65%
